| Compound | melting point [°C] |
| --- | --- |
| O=C(O)c1ccccc1OCCCN1C(=O)c2ccccc2C1=O | 155 to 157 |
| Cc1cccc2[nH]c(C=O)cc12 | 147 to 149 |
| CC(C)C(=O)Nc1cn(-c2cncc(F)c2)nc1CCl | 172 to 177 |
| CCn1c2ccccc2c2cc(C(C#N)=C(C#N)c3cc(C(F)(F)F)cc(C(F)(F)F)c3)ccc21 | 180 to 182 |
| COc1ccc(Cn2ncnc2CN2C(=O)c3ccccc3C2=O)cc1 | 167 to 172 |
| COC(=O)/C(=C/C1CCCCCC1)c1ccc(S(C)(=O)=O)c(C(F)(F)F)c1 | 151 to 156 |
| COC(=O)[C@H](Cc1ccc(O)cc1)Nc1ccccc1C(=O)c1ccccc1 | 185 to 186 |
| COCn1c(-c2nc3c(OC)ccc(N4CCOCC4)c3s2)nc2ccc(N3CCOCC3)nc21 | 126 to 128 |
| COc1cc2cc(-c3ccc(=O)[nH]n3)sc2cc1OC | > 300 |
| O=[N+]([O-])c1ccc(C(O)C(CO)[N+](=O)[O-])cc1 (centres undefined) | 105 to 107 |
| c1ccc2nc(CN(CCN(Cc3ccc4ccccc4n3)Cc3ccc4ccccc4n3)Cc3ccc4ccccc4n3)ccc2c1 | 196 to 198 |
| O=C(O)CCCc1cc2cc(Cl)ccc2n1S(=O)(=O)c1ccc2c(c1)CCO2 | 174 to 179 |
| CC(=O)OC1CSC(Oc2cccc(Cl)n2)C(OC(C)=O)C1OC(C)=O (centres undefined) | 127 |
| COc1cc(C(=O)NS(=O)(=O)c2ccccc2C)ccc1Cc1c(Cl)n(C)c2ccc(CC(C)NC(=O)N(C)C)cc12 (centres undefined) | 120 to 130 |
| CCn1cc(C(=O)O)c(=O)c2cc(F)c(N3CCNC(c4cc5cc(Cl)ccc5o4)C3)cc21 (centres undefined) | 262 to 263 |
| CCCn1c(=O)c2c(NC)n(C(=O)C(C)C)nc2n(Cc2cccc(Cl)c2)c1=O | 154 to 156 |
| CCS(=O)c1cccc(-c2nc(=O)c3ccccc3s2)n1 (centres undefined) | 182 |
| Cn1cc(-c2ccc(Cl)c(Cl)c2)c(=O)c(-c2ccccc2Cl)c1 | 169 to 171 |
| CC(C)Cc1ccc2c([N+](=O)[O-])c(O)c(O)cc2c1 | 105 to 108 |
| N#Cc1c(F)cc(OCc2ccsc2)cc1OC(C(=O)O)c1ccccc1Cl (racemic) | 152 to 153 |
| Cc1nn(C)c(O)c1C(=O)c1ccc(S(C)(=O)=O)c(-c2cnco2)c1Cl | 236 to 241 |
| CC(C)(C)OC(=O)NCc1ccccc1-c1ccc(CO)cc1 | 89 to 93 |
| CCOC(=O)OC1=C(c2c(C)cc(C)cc2C)C(=O)N(N(C)C)C12CCN(N(C)C)CC2 | 105 |
| Cc1c2ccccc2c(C(=O)O)c2c(C(=O)O)cccc12 | 275 to 280 |
| C=CCOC(=O)C1=C(C)NC(C)=C(C(=O)OCC=C)C1c1ccc(Br)cc1 | 130 to 131 |

| Compound | melting point [°C] |
| --- | --- |
| COC(=O)c1c(S(N)(=O)=O)c(C)nn1C | 174 to 176 |
| CCCCCn1c2ccccc2c2cc(C(=O)N3CCOCC3)ccc21 | 99 to 101 |
| CCOC(=O)CCc1c[nH]c2cnc(-n3cncn3)cc12 | 129 to 131 |
| COC(=O)c1ccc(N=CC=Cc2ccccc2)cn1 | 128 to 131 |
| O=C(O)CCCc1cc2cc(C(F)(F)F)ccc2n1S(=O)(=O)c1ccc2c(c1)CCN2 | 175 |
| O=C(O)c1cn(C2CC2)c2c(C(F)(F)F)c(N3CCC(c4ccncc4)C3)c(F)cc2c1=O (centres undefined) | 244 to 245 |
| Cc1ccc(-c2cn(C)cc(-c3cccc(C(F)(F)F)c3)c2=O)cc1Br | 158 to 161 |
| CC(=O)c1cnccc1NC(=O)C(C)(C)C | 95 |
| CC(=O)Nc1c(C(=O)c2cc(C)ccn2)[nH]c2cc(Cl)ccc12 | 187 to 188 |
| CCCCCCCCCCCCCCCCOCC(O)CCSCCCN(C)C (centres undefined) | 30 to 32 |
| O=c1cc(-c2nc[nH]n2)oc2ccccc12 | 210 |
| CC(=O)c1cc(C(C)=O)c(OCCCCC#N)cc1O | 105 to 106 |
| CC(C)N1C(=O)NC(c2ccc3c(c2)CCC3)c2cc3c(cc21)OCO3 (centres undefined) | 146 to 148 |
| C=C1SC(SCc2ccccc2C(=COC)C(=O)OC)=NC1(C)C | 101 |
| COc1ccc(-c2cc(C)cn2-c2ccc(S(=O)(=O)NC(C)=O)cc2)cc1 | 215 to 217 |
| Nc1ncccc1C(=O)NCC1CCN(C[C@H]2COc3cccc(C(F)(F)F)c3O2)CC1 | 101 to 103 |
| COc1cc(OC)c(NC(=O)C(c2ccccc2)n2nnc(C(c3ccccc3)c3ccccc3)n2)c(OC)c1 (centres undefined) | 114 to 117 |
| COc1ccccc1[C@H](C)C(=O)O | 102 |
| CC(C)(C)C(CC#N)(SN=O)C(C)(C)C | 92 to 93 |
| CC(=O)c1cc(Br)c(OCCCN2CCC(c3noc4cc(F)ccc34)CC2)c(Br)c1 | 102 to 103 |
| O=c1c(Cl)c(S(=O)(=O)C2CCCCC2)cnn1-c1ccccc1 | 195 to 196 |
| O=C(CP(=O)(O)O)NC12CC3CC(CC(C3)C1)C2 | 190 to 194 |
| CSC(=NC#N)N1CCc2nc(N)sc2C1 | 152 to 155 |
| COC(=O)N1C(=O)[C@H](O)[C@@H]1c1ccccc1 | 91 to 92 |

— a melting point compilation (Tetko et al.; mined from patent text by program, amines drawn as free bases though some values may be those of a salt)
